Measured values reported in ChEMBL document CHEMBL3120103, “CK2 inhibitor CX4945 induces sequential inactivation of proteins in the signaling pathways related with cell migration and suppresses metastasis of A549 human lung cancer cells” (Bioorg Med Chem Lett, 2013).
Calls of active or inactive are those of the source. The calls are words filed in the database; no cut-off is given here.

What was measured:
[1] = Cytotoxicity against human A549 cells assessed as viable cells at 1 to 30 uM after 3 hrs by CCK8 assay; assay type: cell-based; conditions: read-out: Activity
A549 [2] = test: Reduction in MMP2 expression in human A549 cells at 1 to 10 uM after 24 hrs by Western blot method; assay type: functional, cell-based
NCI-H1299 [3] = test: Antimigratory activity against human H1299 cells after 24 hrs by wound-healing assay; assay type: functional, cell-based
A549 [4] = test: Reduction in MMP9 expression in human A549 cells at 1 to 10 uM after 24 hrs by Western blot method; assay type: functional, cell-based
NCI-H1299 [5] = test: Antiinvasive activity against human H1299 cells after 3 hrs by Boyden chamber invasion assay; assay type: functional, cell-based
A549 [6] = test: Cytotoxicity against human A549 cells assessed as viable cells at 1 to 30 uM after 24 hrs by LDH assay; assay type: cell-based; conditions: a549, 24 h
[7] = Cytotoxicity against human A549 cells assessed as viable cells at 1 to 30 uM after 24 hrs by CCK8 assay; assay type: cell-based; conditions: read-out: Activity
A549 [8] = test: Antiinvasive activity against human A549 cells after 3 hrs by Boyden chamber invasion assay; assay type: functional, cell-based
A549 [9] = test: Antimigratory activity against human A549 cells after 24 hrs by wound-healing assay; assay type: functional, cell-based

O=C(O)c1ccc2c(c1)nc(Nc1cccc(Cl)c1)c1ccncc12 [SILMITASERTIB]
viability at 3 h, up to 30 µM [1]: > 70% | Activity (A549 [2]): inactive | Activity (NCI-H1299 [3]): Dose-dependent effect | Activity (A549 [4]): inactive | Activity (NCI-H1299 [5]): Dose-dependent effect | Activity (A549 [6]): Non-toxic | viability at 24 h, up to 30 µM [7]: > 70% | Activity (A549 [8]): Dose-dependent effect | Activity (A549 [9]): Dose-dependent effect
